From PubChem BioAssay AID2060496 (Molecular Pharmacology Branch, DTP, NCI, 2025)
pIC50: −log10 of the molar value.

Tested on: 276233-004-R-J1-PDC complex spheroid viability
Assay: Anticancer human tumor 276233-004-R-J1-PDC patient-derived colon adenocarcinoma cell line growth inhibition [GQUAD]
Conditions: for pIC50: curve of first compound; for viability, T/C: stronger effect = lower value
How it was run: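 Tumor cells were grown as complex spheroids with HUVEC endothelial cells and mesenchymal stem cells as stroma. G-quadruplex stabilizers were combined with targeted agents over half-log dilutions from near the clinical Cmax, or from 10 microM.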
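Also: spheroids exposed to drugs for seven days.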
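For viability, T/C in this document: 100% = DMSO vehicle control viability.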

## CC(C)n1c(=O)n(C)c2cnc3cc(F)c(-c4ccc(OCCCN5CCCCC5)nc4)cc3c21 + Cc1[nH]c2ccc(F)cc2c1-c1nc2c3cccnc3c3ncccc3c2[nH]1
Second compound 0.0316 µM
  pIC50: < 5.00
Second compound 0.1 µM
  pIC50: < 5.00
Second compound 0.316 µM
  pIC50: < 5.00
Second compound 1 µM
  pIC50: < 5.00
Second compound 3.16 µM
  pIC50: 5.49
Second compound 10 µM
  pIC50: > 7.50
Second compound 0.0316 µM, first compound 0.0316 µM
  viability, T/C: 98.8%
Second compound 0.0316 µM, first compound 0.1 µM
  viability, T/C: 86.7%
Second compound 0.0316 µM, first compound 0.316 µM
  viability, T/C: 110%
Second compound 0.0316 µM, first compound 1 µM
  viability, T/C: 80.8%
Second compound 0.0316 µM, first compound 3.16 µM
  viability, T/C: 103%
Second compound 0.0316 µM, first compound 10 µM
  viability, T/C: 82.9%
Second compound 0.1 µM, first compound 0.0316 µM
  viability, T/C: 90.9%
Second compound 0.1 µM, first compound 0.1 µM
  viability, T/C: 88.7%
Second compound 0.1 µM, first compound 0.316 µM
  viability, T/C: 85%
Second compound 0.1 µM, first compound 1 µM
  viability, T/C: 100%
Second compound 0.1 µM, first compound 3.16 µM
  viability, T/C: 78.2%
Second compound 0.1 µM, first compound 10 µM
  viability, T/C: 84.8%
Second compound 0.316 µM, first compound 0.0316 µM
  viability, T/C: 88.1%
Second compound 0.316 µM, first compound 0.1 µM
  viability, T/C: 94.3%
Second compound 0.316 µM, first compound 0.316 µM
  viability, T/C: 79%
Second compound 0.316 µM, first compound 1 µM
  viability, T/C: 94.2%
Second compound 0.316 µM, first compound 3.16 µM
  viability, T/C: 104%
Second compound 0.316 µM, first compound 10 µM
  viability, T/C: 87.8%
Second compound 1 µM, first compound 0.0316 µM
  viability, T/C: 72.8%
Second compound 1 µM, first compound 0.1 µM
  viability, T/C: 73.3%
Second compound 1 µM, first compound 0.316 µM
  viability, T/C: 82.2%
Second compound 1 µM, first compound 1 µM
  viability, T/C: 70.1%
Second compound 1 µM, first compound 3.16 µM
  viability, T/C: 80.8%
Second compound 1 µM, first compound 10 µM
  viability, T/C: 69.7%
Second compound 3.16 µM, first compound 0.0316 µM
  viability, T/C: 52%
Second compound 3.16 µM, first compound 0.1 µM
  viability, T/C: 49.2%
Second compound 3.16 µM, first compound 0.316 µM
  viability, T/C: 55%
Second compound 3.16 µM, first compound 1 µM
  viability, T/C: 45.8%
Second compound 3.16 µM, first compound 3.16 µM
  viability, T/C: 50.9%
Second compound 3.16 µM, first compound 10 µM
  viability, T/C: 26.8%
Second compound 10 µM, first compound 0.0316 µM
  viability, T/C: 48.7%
Second compound 10 µM, first compound 0.1 µM
  viability, T/C: 47%
Second compound 10 µM, first compound 0.316 µM
  viability, T/C: 54.9%
Second compound 10 µM, first compound 1 µM
  viability, T/C: 42%
Second compound 10 µM, first compound 3.16 µM
  viability, T/C: 47%
Second compound 10 µM, first compound 10 µM
  viability, T/C: 21.7%
